≈ marks a conversion by molar mass, not a printed value. Entries after “also recorded” stand apart in the source; their conditions may differ.
What was measured:
[1] = Stability of Frax in artificial gastrointestinal fluid (SGF/SIF); format: physicochemical; settings: SGF/SIF with or without enzymes, 37 °C
Procedure: The stability studies were performed according to the previous study (Zhang et al., [2015]). Briefly, 20 μL of DMSO solution of Frax (10 mg/mL) was added to 10 mL of simulated gastric fluid (SGF) or simulated intestinal fluid (SIF) containing pepsin/without pepsin. Afterward, the samples were placed in a shaker (100 rpm, 37 °C). At predetermined timepoints, a suitable amount of samples were withdrawn and mixed with methanol. After a thorough vortex, the mixture was centrifuged and the resulted supernatant was subjected to HPLC to determine Frax content.

[2] = Stability of Frax in homogenates of gastrointestinal segments; format: in vitro ADME, rats; settings: rat GI segment homogenates, 37 °C
Procedure: GI segments (the stomach, duodenum, jejunum, ileum, and colon) were immediately isolated after the rats were sacrificed. Thereafter, the mucosa of each segment was homogenized and centrifuged following gently scraping. The supernatant was separated and subjected to BCA protein quantitative kit to adjust the final protein concentration to 1 mg/mL. DMSO solution of Frax (5 mg/mL) was added in the homogenate to achieve a final drug concentration of 20 μg/mL. After incubation at 37 °C for predetermined durations, samples were immediately precipitated by methanol, centrifuged, and injected into HPLC to measure the Frax concentration. The drug concentration measured before the incubation was set to 100%.

[3] = Solubility of Frax in various solubilizers (50% solution); format: physicochemical; settings: 37 °C
Procedure: Excess Frax was added into Solutol HS 15, Tween 80, PEG 400, Transcutol P, β-CD, SBE-β-CD, HP-β-CD, and G2-β-CD solution (50%), respectively. The samples were vortexed followed by incubation in a shaker (120 rpm, 37 °C) for 72 h. After the process, the samples were centrifuged to separate the supernatant containing dissolved Frax. After suitable dilution and filtration, Frax concentration in the supernatant was analyzed by the HPLC method.

[4] = In vitro drug release by dialysis method; format: physicochemical; settings: within 6 h, pH 1.2, 6.8 and 7.4 media, 37 °C
Procedure: In vitro drug release performance was studied by a dialysis method in phosphate buffer (pH 6.8 and 7.4) and 0.1 M HCl (pH 1.2) at 37 °C. Briefly, a certain volume of Frax suspension, SBE-β-CD-Frax, G2-β-CD-Frax, and HP-β-CD-Frax dispersion solution were enclosed in 1500 Da dialysis bags, respectively. The dialysis bag was then transferred and immersed into the release medium under gentle shaking. After 0.5, 1, 1.5, 2, 2.5, 3.5, 4, and 6 h, 1 mL of the release media was aspirated and supplemented with 1 mL of fresh media. The Frax concentration in the samples was analyzed by HPLC. The cumulative drug release (%) was calculated with the following Equation (2) (Chuang et al., [2018]): (2) Drug release (%)=Ve∑1n−1Ci+V0Cn/mFrax where V0 (mL) is the release media volume, Cn (μg/mL) is the drug concentration in the sample, Ve (mL) is the replaced medium volume, and mFrax (mg) is the amount of drug in the sample.

[5] = test system: Caco-2 cells; experiment: Cytotoxicity in Caco-2 cells (MTT assay); format: cell-based; settings: Caco-2, concentration increased to 200 μg/mL
Procedure: Cytotoxicity effects and cellular uptake ability of Frax, CDs, and CDs-Frax complexes were examined using Caco-2 cells. […] Each CD solution was also used to determine whether the cell toxicity was caused by Frax or CDs. For cellular uptake studies, Caco-2 cells were treated with Frax and CDs-Frax (100 μg/mL) for 0.5, 1, and 2 h, respectively. For P-gp inhibition evaluation, the cells were pretreated with verapamil at a concentration of 100 μg/mL and further treated with each drug or formulation. Thereafter, the cells were washed and replenished with fresh PBS (300 μL). The cell lysate was prepared by three cycles of freeze-thaw. Protein concentration in the samples was quantified by the BCA kit while the Frax concentration was determined by HPLC.

[6] = Blood biochemical assay (hematological parameters); format: in vivo, Kunming male mice; settings: mice, 7 weeks; for PLT (platelet) / WBC (white blood cell): in 10^9/L (unit assumed); for RBC (red blood cell): in 10^12/L (unit assumed); for HCT (haematocrit) / RDW-CV (red cell volume distribution width): in % (unit assumed); for MCV (mean cell volume) / MPV (meanplateletvolume) / RDW-SD: in fL (unit assumed); for HGB (hemoglobin): in g/L (unit assumed); for MCH (mean corpuscular hemoglobin): in pg (unit assumed)
Procedure: The Kunming male mice (weight of 28–30 g) were divided into 10 groups (n = 10): normal group, Frax or G2-β-CD-Frax treatment groups with a Frax dose of 5, 10, and 20 mg/kg, respectively, G2-β-CD solution treatment (equivalent to 20 mg/kg of G2-β-CD-Frax) group. Drug treatment continued every day for 7 weeks. One day after the last administration, blood and major tissues (heart, liver, spleen, lung, and kidney) were obtained from the blank group and drug-treated groups (20 mg/kg) for histological examination. The whole blood was directly analyzed using an automatic blood cell analyzer to obtain hematological parameters. The collected tissues were subjected to histological examination.

SMILES: CC1=C2C(=O)O[C@@H](c3ccoc3)[C@]2(C)CCC1 [Frax, Fraxinellone]
- degradation in simulated GI fluids [1]: rather stable; also recorded: negligible degradation
- degradation in GI homogenates [2]: negligible degradation
- solubility at 72 h ([3]; 50% (w/v) G2-β-CD solution in water): 12.7 mg/mL (≈ 54.8 mM)
- Frax solubility in G2-β-CD solution relative to water ([3]; 50% (w/v) G2-β-CD solution vs water): 160 times
- cumulative drug release [4]: < 20%
- cytotoxicity (in words) [5]: marked cell death
- MCHC (mean corpuscular hemoglobin concentration) ([6]; 5 mg/kg): 342.63 ± 10.38
- PDW (platelet distribution width) ([6]; 5 mg/kg): 14.84 ± 0.12
- PLT (platelet) ([6]; 5 mg/kg): 1188.13 ± 317.24
- WBC (white blood cell) ([6]; 5 mg/kg): 7.78 ± 3.91
- RBC (red blood cell) ([6]; 5 mg/kg): 9.21 ± 0.75
- HCT (haematocrit) ([6]; 5 mg/kg): 39.54 ± 2.28
- RDW-CV (red cell volume distribution width) ([6]; 5 mg/kg): 16.24 ± 1.32
- MCV (mean cell volume) ([6]; 5 mg/kg): 43.01 ± 2.17
- MPV (meanplateletvolume) ([6]; 5 mg/kg): 6.51 ± 0.32
- RDW-SD ([6]; 5 mg/kg): 29.88 ± 3.52
- HGB (hemoglobin) ([6]; 5 mg/kg): 135.50 ± 10.76
- MCH (mean corpuscular hemoglobin) ([6]; 5 mg/kg): 14.73 ± 0.49
- MCHC (mean corpuscular hemoglobin concentration) ([6]; 10 mg/kg): 344.43 ± 9.64
- PDW (platelet distribution width) ([6]; 10 mg/kg): 14.91 ± 0.12
- PLT (platelet) ([6]; 10 mg/kg): 1012.71 ± 281.88
- WBC (white blood cell) ([6]; 10 mg/kg): 6.46 ± 2.46
- RBC (red blood cell) ([6]; 10 mg/kg): 8.42 ± 0.32
- HCT (haematocrit) ([6]; 10 mg/kg): 37.15 ± 1.70
- RDW-CV (red cell volume distribution width) ([6]; 10 mg/kg): 16.22 ± 0.59
- MCV (mean cell volume) ([6]; 10 mg/kg): 43.80 ± 1.44
- MPV (meanplateletvolume) ([6]; 10 mg/kg): 6.63 ± 0.44
- RDW-SD ([6]; 10 mg/kg): 30.71 ± 1.70
- HGB (hemoglobin) ([6]; 10 mg/kg): 127.00 ± 5.10
- MCH (mean corpuscular hemoglobin) ([6]; 10 mg/kg): 15.09 ± 0.46
- MCHC (mean corpuscular hemoglobin concentration) ([6]; 20 mg/kg): 338.75 ± 3.58
- PDW (platelet distribution width) ([6]; 20 mg/kg): 14.86 ± 0.17
- PLT (platelet) ([6]; 20 mg/kg): 1190.00 ± 157.80
- WBC (white blood cell) ([6]; 20 mg/kg): 8.32 ± 3.90
- RBC (red blood cell) ([6]; 20 mg/kg): 9.07 ± 0.33
- HCT (haematocrit) ([6]; 20 mg/kg): 38.83 ± 1.69
- RDW-CV (red cell volume distribution width) ([6]; 20 mg/kg): 16.54 ± 0.79
- MCV (mean cell volume) ([6]; 20 mg/kg): 42.83 ± 1.54
- MPV (meanplateletvolume) ([6]; 20 mg/kg): 6.38 ± 0.23
- RDW-SD ([6]; 20 mg/kg): 30.13 ± 2.23
- HGB (hemoglobin) ([6]; 20 mg/kg): 131.50 ± 5.66
- MCH (mean corpuscular hemoglobin) ([6]; 20 mg/kg): 14.51 ± 0.46
